As a reminder, the IC50 is the concentration at which inhibition is half-maximal.

Structures are written as SMILES. Some results are limits rather than exact numbers.

The assay concerns the target T1, EHMT2 (Homo sapiens, UniProt Q96KQ7).
T1 construct: host or cells: MDA-MB-231
T1 sequence (Q96KQ7 1-1210): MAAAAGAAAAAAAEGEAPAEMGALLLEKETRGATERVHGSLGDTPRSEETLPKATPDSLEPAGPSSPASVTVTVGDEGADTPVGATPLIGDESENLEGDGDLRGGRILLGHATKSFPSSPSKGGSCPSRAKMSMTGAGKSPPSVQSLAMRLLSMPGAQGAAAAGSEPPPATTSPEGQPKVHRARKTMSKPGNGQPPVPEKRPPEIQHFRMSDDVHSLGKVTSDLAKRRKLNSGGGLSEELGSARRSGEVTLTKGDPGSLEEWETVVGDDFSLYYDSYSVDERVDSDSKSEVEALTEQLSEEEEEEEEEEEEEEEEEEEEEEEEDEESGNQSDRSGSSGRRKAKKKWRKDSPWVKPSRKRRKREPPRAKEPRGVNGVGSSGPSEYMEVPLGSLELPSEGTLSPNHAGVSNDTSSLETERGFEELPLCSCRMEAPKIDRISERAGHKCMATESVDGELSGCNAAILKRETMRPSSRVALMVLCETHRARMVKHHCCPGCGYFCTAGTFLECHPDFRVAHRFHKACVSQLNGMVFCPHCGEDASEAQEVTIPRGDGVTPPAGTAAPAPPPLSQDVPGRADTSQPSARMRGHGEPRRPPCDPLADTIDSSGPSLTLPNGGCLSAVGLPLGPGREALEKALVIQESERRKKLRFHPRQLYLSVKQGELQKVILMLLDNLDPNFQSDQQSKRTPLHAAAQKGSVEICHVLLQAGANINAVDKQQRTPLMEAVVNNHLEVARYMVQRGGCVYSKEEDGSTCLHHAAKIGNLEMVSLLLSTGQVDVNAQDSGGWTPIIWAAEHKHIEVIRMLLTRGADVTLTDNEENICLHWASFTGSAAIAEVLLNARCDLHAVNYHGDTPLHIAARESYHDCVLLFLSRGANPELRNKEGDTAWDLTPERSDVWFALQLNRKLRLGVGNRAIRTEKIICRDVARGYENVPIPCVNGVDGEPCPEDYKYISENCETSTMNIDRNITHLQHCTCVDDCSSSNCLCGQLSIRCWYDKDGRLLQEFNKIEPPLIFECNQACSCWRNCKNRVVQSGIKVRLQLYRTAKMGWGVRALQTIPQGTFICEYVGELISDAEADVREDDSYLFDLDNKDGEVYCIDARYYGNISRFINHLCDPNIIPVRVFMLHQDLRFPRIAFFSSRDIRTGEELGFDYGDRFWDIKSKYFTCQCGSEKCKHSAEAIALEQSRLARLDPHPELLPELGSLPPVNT
Description: MDA-MB-231 H3K9me2 in-cell Western assay (EHMT2 ICW). Format: cell-based. The following applies: Table VI; read-out: EHMT2 ICW IC50. A digest of the protocol: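 Steps: compound added to plate, MDA-MB-231 cells plated in RPMI with 10% FBS, incubation for 48 h at 37 °C, fixation, overnight anti-H3K9me2 staining at 4 °C, and donkey anti-mouse 800CW with DRAQ5 counterstain. IC50 values come from percent inhibition fitted with a four-parameter model.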
`CCN1CCO[C@H](COc2cc(Nc3nccc(NC)n3)ccc2OC)C1` [Compound 937]: the IC50 was greater than 10 µM.

As to `CNc1cc(C)nc(Nc2ccc(C(=O)NCc3ccccc3)c(OC)c2)n1` [Compound 877], the IC50 was greater than 10 µM.

`COc1ncc(Nc2nc(C)cc(NCC3COC3)n2)cc1OC[C@H](O)CN1CCCC1` [Compound 884]: the IC50 is greater than 10 µM.

Turning to `CNc1cc(C)nc(Nc2cc(OC[C@@H](O)CN3CCCC3)c(OC)cn2)n1` [Compound 885], the concentration for half-maximal inhibition (IC50) is greater than 10 µM.

Turning to `CNc1ccnc(Nc2ccc(OC)c(OC[C@H](CN3CCCC3)OC)c2)n1` [Compound 920], the IC50 is 0.1 to 1 µM.

Turning to `CNc1cc(C)nc(Nc2ccc(OC)c(OCC(O)CN3CCCC3)c2)n1` (stereo in doubt) [Compound 906, (2S)-1-(2-methoxy-5-[[4-methyl-6-(methylamino)pyrimidin-2-yl]amino]phenoxy)-3-(pyrrolidin-1-yl)propan-2-ol], the IC50 was in the range of 0.1 to 1 µM.

On to `CNc1cc(C)nc(Nc2ccc(OC)c(C(=O)NC3CCN(C)CC3)c2)n1` [Compound 873], for which the IC50 was greater than 10 µM.

With `CNc1cc(C)nc(Nc2cc(OCCCN3CCCC3)c3[nH]nnc3c2)n1` [Compound 624], the IC50 was in the range of 1 to 10 µM.

With `CNc1cc(C)nc(Nc2cc(OC[C@H](O)CN3CCCC3)c(OC)cn2)n1` [Compound 886], the IC50 is greater than 10 µM.

For the compound `CNc1ccnc(Nc2ccc(OC)c(OC[C@H]3CNCCO3)c2)n1` [Compound 933], the IC50 is greater than 10 µM.

Consider `CNc1ccnc(Nc2ccc(OC)c(OC[C@@H]3CN(C)CCO3)c2)n1` [Compound 936], for which the IC50 is greater than 10 µM.

In the case of `CCN1CCC(O)(COc2cc(Nc3nccc(NC)n3)ccc2OC)C1` (stereo not drawn) [Compound 1007], the IC50 was greater than 10 µM.

On to `CNc1cc(C2CCOCC2)c2cc(OC)c(OCCCN3CC(O)C3)cc2n1` [Compound 902], for which the IC50 fell in the range of 0.1 to 1 µM.

For `CNCCCOc1cc(Nc2nccc(NC)n2)ccc1OC` [Compound 916], the IC50 was 1 to 10 µM.

For the compound `CNC[C@@H](COc1cc(Nc2nccc(NC)n2)ccc1OC)OC` [Compound 922], the IC50 was greater than 10 µM.

For the origin of these results see patent US20210198277A1, “AMINE-SUBSTITUTED ARYL OR HETEROARYL COMPOUNDS” (Epizyme, Inc., priority 2016, published 2021).
